Among the data in a melting point compilation (Tetko et al.; mined from patent text by program, amines drawn as free bases though some values may be those of a salt) are melting point values, retold here.

What is called melting point is the temperature, or range, at which the solid turns liquid.

Structures are written as SMILES.

`COC(=O)c1ccc(OCC(C)NCC(O)c2cccc(Cl)c2)c(C(=O)OC)c1` (stereo unspecified) yielded a melting point of 112 °C. As for `CC(C)n1nc(-c2cc(Br)c(N)nc2-c2ccccc2)ccc1=O`, the figure is 174 to 176 °C; as for `CC(C)C(=O)Oc1cccc2c(-c3ccccc3)c3cccc(OC(=O)C(C)C)c3c(OC(=O)C(C)C)c12`, 224 °C.

In turn, `O=C1C=C(c2c[nH]c3ccccc23)C(=O)O1` had a melting point of 210 to 214 °C.

For `N#Cc1cc(-c2cnccn2)c[nH]c1=O`, the melting point came out at 250 °C.

As for `Cc1cc(SC(C)C)c(NC(=O)CCCCCSc2nc3ccccc3o2)c(SC(C)C)n1`, the melting point is 98 to 100 °C. As for `Cc1ccnc2c1C(=NNC(=N)N)CC(c1cc(Cl)sc1Cl)C2` (stereo unspecified), the figure is 250 to 251 °C; as for `O=C1N(c2ccccc2Br)Cc2cnc(Nc3ccccc3)nc2N1c1cccc(CO)c1`, 136 °C; as for `Cc1cc(C)c2ncc(NC(=O)C3(C)CCc4c(C)c(O)c(C)c(C)c4O3)c(-c3ccccc3Cl)c2c1` (stereo unspecified), 222 to 224 °C.

As for `COc1cc(COc2nn(CCO)cc2CO)ccc1OCc1nc(-c2ccco2)oc1C`, the melting point was in the range of 120 to 122 °C. In the case of `Cn1cc(C2=C(c3cc[nH]c3)C(=O)NC2=O)c2ccccc21` it was 240 to 241 °C; in that of `CC(C)(C)c1ccc(C(=O)N[C@H]2CC[C@H](CCN3CCN(c4nccc5c4CCO5)CC3)CC2)cc1`, 186 °C; in that of `COc1ccccc1Sc1c(O)nc[nH]c1=O`, 291 °C.

With `O=S(=O)(N=CN1CCOCC1)c1cc(Br)cc(Br)c1`, the melting point was 195 to 197 °C. As for `CC(C)c1cccc(C(C)C)c1NC(=O)CN1CCCN(CCCSc2nc3ncccc3o2)CC1`, the figure is 73 to 75 °C.

Regarding `CSc1nccc(-c2c3cccnc3n3c(NC(C)=O)nccc23)n1`, the melting point lay within 160 to 162 °C. As for `CCc1nc2c(C)cc(C)nc2n1Cc1ccc2c(c1)CCc1ccccc1N2Cc1ccccc1C#N`, the figure is 133 to 135 °C; as for `COc1ccc(C(=O)Nc2ccccc2)cc1NC(=O)C(O)c1ccccc1` (stereo unspecified), 173 to 175 °C. In the case of `Cc1nc(-c2ccc(CCC3(O)CN4CCC3CC4)cc2)no1` (stereo unspecified) it was 165 to 167 °C; in that of `O=C(O)CCc1ccc(C=CC(=O)c2ccccc2)cc1`, 159 to 160 °C. As for `COc1cc(OCc2ccc(C(=O)N(C)C3CCCCC3)cc2)cc(OC)c1OC`, the figure is 116 °C; as for `COc1ccc(C2=NN(C(=O)c3cccc(NC(=O)c4ccc(NC(=O)c5ccc([N+](=O)[O-])cc5)cc4)c3)CCC2)cc1OCCN(C)C`, 274 °C; as for `Cc1cc(=O)n(-c2cc(C(=O)OC(C)C)c(Cl)cc2F)c(=O)[nH]1`, 134 to 136 °C. Regarding `O=C(O)C(Sc1nc2c(s1)CCCC2)c1ccccc1` (stereo unspecified), the melting point lay in the range of 118 to 120 °C.

`Cn1nc2cccc(OCC3CC3)c2c1S(N)(=O)=O` returned a melting point of 139 to 141 °C.

Molecule `N=C(O)c1cc(C(O)=Nc2ccc(O)cc2)c(C(=O)O)cc1C(=O)O` displayed a melting point of 300 °C. As for `CSC(SC)=C1CCC2CC=CC=C2C1=O` (stereo unspecified), the figure is 54 to 56 °C; as for `COc1cc(C)nc(-n2ccnc2)n1`, 53 to 54 °C. As to `CC(C)(C)NCC(O)c1ccc(N)c(C#N)c1Cl` (stereo unspecified), the melting point is 85 to 88 °C. In the case of `CCCOc1nc2cccc(C(=O)O)c2n1Cc1ccc(-c2ccccc2-c2nc(=O)o[nH]2)cc1` it was 170 to 172 °C; in that of `Clc1ccc(-c2cc(C3CCN(CC4CCCCC4)CC3)n[nH]2)cc1`, 186 to 187 °C; in that of `Nc1ccc(-c2cnc3[nH]c(=O)n(CC4CCOCC4)c3n2)cn1`, more than 260 °C. The molecule `Cc1cc2c(c3ccc(=O)[nH]c13)OC(CSCCN(C)C)C2` (stereo unspecified) returned a melting point of 163 to 165 °C. As for `COc1ccnc(C(=O)N[C@H]2COC(=O)[C@H](CC3CCCCC3)[C@@H](OC(=O)C(C)C)[C@H](C)OC2=O)c1OC(C)=O`, the figure is 164 to 170 °C; as for `CON(C)CCNc1ncnc2nc[nH]c12`, 168 to 170 °C; as for `Cc1nc[nH]c1C(=O)Nc1ccc(-n2nc(C3CC3)cc2C(F)(F)F)cc1`, 245 to 250 °C. As for `COC(=O)CCCc1cc2nc(Cl)ccc2n1S(=O)(=O)c1ccc(F)cc1`, the figure is 119 °C; as for `CCCSc1ncc(CC(NC(=O)c2ccccc2)C(=O)O)n1Cc1ccccc1Cl` (stereo unspecified), 210 to 212 °C. As for `COc1ccc2nc(C)sc2c1N`, the figure is 117 to 119 °C; as for `N#CSCC(=O)N1CCCCC1`, 78 to 79 °C; as for `Cc1cc2nc(C)c(=O)n(C)c2cc1C`, 164 to 166 °C. The molecule `CCCCc1ccc2ncn(Cc3ccc(-c4ccccc4-c4nnnn4COC)cc3)c(=O)c2c1` registered a melting point of 112 °C. As for `O=C(c1cc(=O)c2cc(O)ccc2[nH]1)N1CCC(O)(Cc2ccccc2)CC1`, the melting point turned out to be 178 °C. In turn, `COC(=O)C(=Cc1ccc(OC)c(OC)c1)NC(=O)c1ccccc1` showed a melting point of 135 to 137 °C.

`CCCCCCCCCCCCCCCCCCN(C)C(=O)c1ccc(Cl)c([N+](=O)[O-])c1` registered a melting point of 55 to 56 °C.

`Cc1nc(-n2cnn(CC3CC3)c2=O)sc1C(=O)NCc1ccncc1` had a melting point of 169 to 170 °C. As for `CN(O)C(=O)Nc1cccc(NC(=O)N(C)O)c1`, the figure is 146 to 147 °C. As for `COc1cc(CCO[Si](C)(C)C(C)(C)C)c(C2=CC3CCC2N3C(=O)OC(C)(C)C)cn1` (stereo unspecified), the melting point was 75 to 76 °C.

`CC(=O)Nc1ccc(-c2nc3ccccc3s2)cc1` returned a melting point of 227 to 229 °C.

With `COc1cc(OC)c(NC(=O)[C@H]2[C@H](c3ccccc3)C2(C)C)cc1Cl` (relative stereo), the melting point is 160 to 162 °C.

On to `CC(C)(C)C1(O)CCN(CC2c3ccccc3CCc3ccccc32)CC1`, for which the melting point lay in the range of 96 to 98.5 °C. As for `CCNC(=O)c1c(Cl)cccc1NC(C)(C)C`, the figure is 139 to 140 °C; as for `COc1cc2c(OC)nc3c4ccccc4nc(OC)c3c2cc1OC`, 173 to 175 °C.

With `OC(CCl)c1ccc(-c2ccc(SC(F)F)cc2)cc1` (stereo unspecified), the melting point was in the range of 66 to 68 °C. In the case of `Nc1nc2c(ncn2COCCOCCO)c(=O)[nH]1` it was 184 to 187 °C; in that of `C=CCNC(=O)C=Cc1cccc(F)c1`, 84.5 to 87 °C. Regarding `O=C(NCCN1CCN(C(c2ccccc2)c2cccnc2)CC1)C1CSC(c2cccnc2)N1` (stereo unspecified), the melting point lay in the range of 130 to 131 °C. As for `CCCCN(CCCC)c1ccc2cc(Cl)cnc2c1C#N`, the figure is 112 °C; as for `COc1cnc(NCCCOc2cccc(CN3CCCCC3)c2)[nH]c1=O`, 148 to 150 °C; as for `O=C(O)Cc1cc(Br)c(S(=O)(=O)c2ccc(O)c(C3CCCC3)c2)c(Br)c1`, 171 to 174 °C. For the molecule `CC(NC(=O)Cc1cc(F)cc(F)c1)C(=O)NC1C(=O)NCc2ccccc21` (stereo unspecified), the melting point was in the range of 243 to 244 °C. In turn, `CC(C)NC(=O)c1cc2[nH]cnc2c(Cl)c1NC(=O)c1cc(C(F)(F)F)nn1-c1ncccc1Cl` registered a melting point of 200 to 203 °C. As for `Cc1cccc(NC(=O)NC(Cc2ccccc2)C(=O)O)c1` (racemic), the figure is 182 °C. In the case of `Fc1ccc(C2CC3CCC(C3)C23CO3)cc1` (stereo unspecified) it was 178 to 180 °C. As for `CCc1[nH]n(C2CCCC2)c2nc(-c3ccccc3)nc(=O)c1-2`, the figure is 221 to 222 °C.

Molecule `O=C(NCC(C(O)c1ccc([N+](=O)[O-])cc1)N1CCC(Cc2ccccc2)CC1)c1ccccc1` (stereo unspecified) displayed a melting point of 143 to 147 °C. In the case of `Cc1cnc(C(=O)O)c(-c2ccc(Cl)c(C(=O)NCC34CC5CC(CC(C5)C3)C4)c2)c1` it was 125 to 130 °C.

Consider `CCCCc1cn(-c2c(C)cccc2Cl)c(=O)n1Cc1ccc(-c2ccccc2-c2nnn[nH]2)cc1`, for which the melting point was 163 to 164 °C. As for `O=C(CCl)c1ccc2c(c1)Nc1ccccc1S2`, the figure is 190 to 191 °C. In the case of `CCCCCCCCCCCCCCCCOc1cc(CO)cc(CO)c1` it was 90 °C. The molecule `COc1ccc(C(CCN(C)C)c2ncc[nH]2)cc1` (stereo unspecified) registered a melting point of 131 to 133 °C. `COc1cccc(C2C=C(C)NC(CN3C(=O)c4ccccc4C3=O)=C2)c1[N+](=O)[O-]` (stereo unspecified): the melting point amounted to 98 °C.

Molecule `Cc1c(CC(=O)O)c2cc(OCc3csc(-c4ccccc4)n3)ccc2n1Cc1ccc(Cl)cc1` returned a melting point of 150 to 151 °C.

For the molecule `CS(=O)(=O)Nc1ccc(CC#N)c2cn[nH]c12`, the melting point fell in the range of 223 to 225 °C. Turning to `N#CC1CN1C(=O)NC(=O)C(Cl)Cl` (stereo unspecified), the melting point is 164 to 166 °C.

`CC(C)(C)OC(=O)N1CCN(CCSc2nc3ccccc3[nH]2)CC1`: the melting point fell in the range of 175 to 176 °C. The molecule `O=C(Nc1ccccc1)O[C@@H]1CN=C(c2ccc3ccccc3c2)O[C@H]1c1ccccc1` (racemic) returned a melting point of 163 °C. In the case of `COC(c1ccccc1)C1CCCCCC(=Cc2ccccc2)C1=O` (stereo unspecified) it was 136 to 139 °C. As for `COCCN1CCc2ccc(Nc3ncc4ccc(-c5ccccc5)n4n3)cc2CC1`, the figure is 116 to 118 °C. In the case of `COc1ccc(C2=NNC(=O)[C@H]3CC=CC[C@@H]23)cc1Cl` (relative stereo) it was 183 to 185 °C. With `Cc1cc([N+](=O)[O-])c(C)c(Cl)c1Oc1ccc(Cl)c2ccccc12`, the melting point is 135 to 137 °C. In the case of `O=c1ccc([N+](=O)[O-])cn1[C@@H]1c2ccccc2OCC[C@H]1O` (relative stereo) it was 152 to 155 °C. In the case of `CC(C)N(C(=O)CN1C(=O)CC(=O)N(c2ccccc2)c2ccccc21)c1ccccc1` it was 199 to 200 °C. In the case of `COc1cccc2sc(-c3ccc(C(C)(C)C)cc3)nc12` it was 90 to 91 °C; in that of `CCCCC1=NC2(CCCC2)C(=O)N1Cc1ccc(-c2ccccc2S(=O)(=O)NC(=O)c2onc(C)c2C)c(CN2CCC(C)(C)C2=O)c1`, 104 to 110 °C; in that of `COc1c(Cl)ccc(-c2cc(N)c(Cl)c(C(=O)NOCc3nnsc3Cl)n2)c1F`, 179 to 181 °C.
